# Measurements taken from ChEMBL document CHEMBL4420076, “Amylin and calcitonin receptor agonist” (2017).
# Numbered stars: 1 amine (or outer) side, 2 acyl side, 3 side chain; on linkers, the order of the positions; unused ones are H or OH. Side chains are listed from the residue outwards. Peptide text beside a SMILES is read from it. * marks the point of attachment. C20 diacid = O=C(O)CCCCCCCCCCCCCCCCCCC(=O)*; C18 diacid = O=C(O)CCCCCCCCCCCCCCCCC(=O)*; C16 diacid = O=C(O)CCCCCCCCCCCCCCC(=O)*; γGlu = O=C(O)[C@H](CCC(=O)[*:2])N[*:1]
# Columns and labels:
# [1] = target: T1, Amylin receptor AMY3; CALCR/RAMP3 (Homo sapiens, UniProt O60896+P30988); assay: Agonist activity at human amylin receptor expressed in BHK570 cells co-expressing RAMP3 assessed as increase in intracellular cAMP concentration incubated for 3 hrs in absence of albumin by CRE luciferase reporter gene assay; format: functional, cell-based
# T1 sequence (P30988 whole entry): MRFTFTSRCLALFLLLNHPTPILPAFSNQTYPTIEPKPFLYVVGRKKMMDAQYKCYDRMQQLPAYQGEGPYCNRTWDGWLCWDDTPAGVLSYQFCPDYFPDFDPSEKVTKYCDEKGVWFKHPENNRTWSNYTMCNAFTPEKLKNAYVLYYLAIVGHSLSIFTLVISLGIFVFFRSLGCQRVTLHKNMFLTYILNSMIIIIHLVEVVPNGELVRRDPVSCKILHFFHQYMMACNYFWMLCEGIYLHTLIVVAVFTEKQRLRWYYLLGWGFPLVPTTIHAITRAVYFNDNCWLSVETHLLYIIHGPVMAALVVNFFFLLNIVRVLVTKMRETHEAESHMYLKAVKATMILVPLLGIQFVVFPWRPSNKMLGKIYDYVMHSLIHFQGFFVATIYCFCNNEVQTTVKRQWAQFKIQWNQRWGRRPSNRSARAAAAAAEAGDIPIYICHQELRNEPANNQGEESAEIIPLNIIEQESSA
# T1 sequence (O60896 whole entry): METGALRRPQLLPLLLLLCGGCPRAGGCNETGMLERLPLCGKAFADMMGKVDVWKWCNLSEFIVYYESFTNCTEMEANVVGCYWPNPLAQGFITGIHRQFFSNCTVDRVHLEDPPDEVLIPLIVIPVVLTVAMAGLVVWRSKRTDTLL
# [2] = Solubility in 100 mM glycylglycine buffer at pH 4.0 incubated for 18 hrs by UPLC analysis; format: physicochemical
# [3] = target: T1, Amylin receptor AMY3; CALCR/RAMP3; assay: Displacement of [125I]-labeled rat amylin from human amylin receptor expressed in BHK tkts13 whole cells co-expressing RAMP3 incubated for 60 mins by scintillation proximity assay; format: cell-based
# [4] = Solubility in 100 mM glycylglycine buffer at pH 5.0 incubated for 18 hrs by UPLC analysis; format: physicochemical
# [5] = Stability in pH 7.5 buffer assessed as compound recovery at 1 uM by Thioflavin T based fluorescence assay; format: physicochemical; settings: read-out: Drug recovery
# Calcitonin receptor [6] = target: T2, Calcitonin receptor (Homo sapiens, UniProt P30988); assay: Agonist activity at human calcitonin receptor expressed in BHK570 cells assessed as increase in intracellular cAMP concentration incubated for 3 hrs in presence of 10% FBS by CRE luciferase reporter gene assay; format: functional, cell-based
# T2 sequence (P30988 whole entry): T1 sequence (P30988 whole entry)
# Rattus norvegicus [7] = assay: Reduction in food intake in Sprague-Dawley rat at 3 nmol/kg measured 0 to 24 hrs post dose relative to control; format: functional; parameters: scale not given: the % may be the effect or the level left
# [8] = Solubility in 100 mM glycylglycine buffer at pH 3.0 incubated for 18 hrs by UPLC analysis; format: physicochemical
# Calcitonin receptor [9] = target: T2, Calcitonin receptor; assay: Agonist activity at human calcitonin receptor expressed in BHK570 cells assessed as increase in intracellular cAMP concentration incubated for 3 hrs in absence of albumin by CRE luciferase reporter gene assay; format: functional, cell-based
# Calcitonin receptor [10] = target: T2, Calcitonin receptor; assay: Displacement of [125I]-labeled human calcitonin from human calcitonin receptor expressed in BHK tkts13 whole cells incubated for 60 mins by scintillation proximity assay; format: cell-based
# Rattus norvegicus [11] = assay: Reduction in food intake in Sprague-Dawley rat at 3 nmol/kg measured 24 to 48 hrs post dose relative to control; format: functional; parameters: scale not given: the % may be the effect or the level left
# [12] = Solubility in 100 mM bistrispropane buffer at pH 8.0 incubated for 18 hrs by UPLC analysis; format: physicochemical
# [13] = Solubility in 100 mM bistrispropane buffer at pH 7.5 incubated for 18 hrs by UPLC analysis; format: physicochemical
# [14] = Stability in pH 7.5 buffer assessed as lag time for fibril formation at 1 uM by Thioflavin T based fluorescence assay; format: physicochemical; settings: pH 7.5, 1 µM
# [15] = Solubility in 100 mM bistrispropane buffer at pH 7.0 incubated for 18 hrs by UPLC analysis; format: physicochemical
# [16] = Solubility in 100 mM bistrispropane buffer at pH 6.0 incubated for 18 hrs by UPLC analysis; format: physicochemical
# [17] = Solubility in 100 mM bistrispropane buffer at pH 6.5 incubated for 18 hrs by UPLC analysis; format: physicochemical
# [18] = target: T1, Amylin receptor AMY3; CALCR/RAMP3; assay: Agonist activity at human amylin receptor expressed in BHK570 cells co-expressing RAMP3 assessed as increase in intracellular cAMP concentration incubated for 3 hrs in presence of 10% FBS by CRE luciferase reporter gene assay; format: functional, cell-based
EC50 [1] [nM],solubility at 18 h [2] [µM],IC50 [3] [nM],solubility at 18 h [4] [µM],remaining at 1 µM [5] [%],EC50 (Calcitonin receptor [6]) [nM],solubility at 18 h [8] [µM],EC50 (Calcitonin receptor [9]) [nM],IC50 (Calcitonin receptor [10]) [nM],solubility at 18 h [12] [µM],solubility at 18 h [13] [µM],Time [14] [h],solubility at 18 h [15] [µM],solubility at 18 h [16] [µM],solubility at 18 h [17] [µM],EC50 [18] [nM],Structure (SMILES),Activity (Rattus norvegicus [7]) [%],Activity (Rattus norvegicus [11]) [%]
0.068,≥ 200,5.45,≥ 200,0,0.113,≥ 200,0.036,1.27,≥ 200,≥ 200,0.3,,,,,CC(C)C[C@H](NC(=O)CNC(=O)[C@H](CO)NC(=O)[C@H](C)N)C(=O)N[C@@H](CO)C(=O)N[C@H](C(=O)N[C@@H](C)C(=O)N[C@@H](C)C(=O)N[C@@H](CC(C)C)C(=O)NCC(=O)N[C@@H](CCCNC(=N)N)C(=O)N[C@@H](CC(C)C)C(=O)N[C@@H](CO)C(=O)N[C@@H](CCC(N)=O)C(=O)N[C@@H](CCC(=O)O)C(=O)N[C@@H](CC(C)C)C(=O)N[C@@H](Cc1cnc[nH]1)C(=O)N[C@@H](CCC(=O)O)C(=O)N[C@@H](CC(C)C)C(=O)N[C@@H](CCC(N)=O)C(=O)N[C@H](C(=O)N[C@@H](Cc1ccc(O)cc1)C(=O)N1CCC[C@H]1C(=O)N[C@@H](CCCNC(=N)N)C(=O)N[C@H](C(=O)N[C@@H](CCC(=O)O)C(=O)N[C@H](C(=O)NCC(=O)N[C@@H](CO)C(=O)N[C@@H](CCCCNC(=O)CC[C@H](NC(=O)CCCCCCCCCCCCCCCCCCC(=O)O)C(=O)O)C(=O)N[C@H](C(=O)N[C@@H](Cc1ccc(O)cc1)C(N)=O)[C@@H](C)O)[C@@H](C)O)[C@@H](C)O)[C@@H](C)O)[C@@H](C)O (H-ASGLSTAALGRLSQELHELQTYPRTETGSK([γGlu-C20 diacid])TY-NH2),4,-5
0.008,≥ 200,0.498,≥ 200,,,≥ 200,0.004,0.413,≥ 200,≥ 200,,≥ 200,≥ 200,≥ 200,,CC(C)C[C@H](NC(=O)[C@H](C)NC(=O)[C@H](C)NC(=O)[C@@H](NC(=O)[C@H](CO)NC(=O)[C@H](CC(C)C)NC(=O)[C@H](CCC(=O)O)NC(=O)[C@H](CO)NC(=O)[C@H](C)NC(=O)[C@H](CCC(=O)O)NC(=O)CCCCCCCCCCCCCCC(=O)O)[C@@H](C)O)C(=O)NCC(=O)N[C@@H](CCCNC(=N)N)C(=O)N[C@@H](CC(C)C)C(=O)N[C@@H](CO)C(=O)N[C@@H](C)C(=O)N[C@@H](CCC(=O)O)C(=O)N[C@@H](CC(C)C)C(=O)N[C@@H](Cc1cnc[nH]1)C(=O)N[C@@H](CCC(=O)O)C(=O)N[C@@H](CC(C)C)C(=O)N[C@@H](C)C(=O)N[C@H](C(=O)N[C@@H](CC(C)C)C(=O)N1CCC[C@H]1C(=O)N[C@@H](CCCNC(=N)N)C(=O)N[C@H](C(=O)N[C@@H](CCC(=O)O)C(=O)N[C@H](C(=O)NCC(=O)N1CCC[C@H]1C(=O)N[C@@H](CCC(=O)O)C(=O)N[C@@H](CO)C(=O)N1CCC[C@H]1C(N)=O)[C@@H](C)O)[C@@H](C)O)[C@@H](C)O ({C16 diacid}-EASELSTAALGRLSAELHELATLPRTETGPESP-NH2),63,9
0.01,≥ 200,0.352,≥ 200,,,≥ 200,0.007,0.309,≥ 200,≥ 200,,≥ 200,≥ 200,≥ 200,,CC(C)C[C@H](NC(=O)[C@H](CCC(=O)O)NC(=O)[C@H](Cc1cnc[nH]1)NC(=O)[C@H](CC(C)C)NC(=O)[C@H](CCC(=O)O)NC(=O)[C@H](C)NC(=O)[C@H](CO)NC(=O)[C@H](CC(C)C)NC(=O)[C@H](CCCNC(=N)N)NC(=O)CNC(=O)[C@H](CC(C)C)NC(=O)[C@@H](NC(=O)[C@H](C)NC(=O)[C@@H](NC(=O)[C@H](CO)NC(=O)[C@H](CC(C)C)NC(=O)[C@H](CCC(=O)O)NC(=O)[C@@H]1CCCN1C(=O)[C@H](C)NC(=O)[C@H](CCC(=O)O)NC(=O)CCCCCCCCCCCCCCCCC(=O)O)[C@@H](C)O)C(C)C)C(=O)N[C@@H](C)C(=O)N[C@H](C(=O)N[C@@H](CC(C)C)C(=O)N1CCC[C@H]1C(=O)N[C@@H](CCCNC(=N)N)C(=O)N[C@H](C(=O)N[C@@H](CCC(=O)O)C(=O)N[C@H](C(=O)NCC(=O)N1CCC[C@H]1C(=O)N[C@@H](CCC(=O)O)C(=O)N[C@@H](CO)C(=O)N1CCC[C@H]1C(N)=O)[C@@H](C)O)[C@@H](C)O)[C@@H](C)O ({C18 diacid}-EAPELSTAVLGRLSAELHELATLPRTETGPESP-NH2),52,0
0.027,≥ 200,0.608,≥ 200,,0.022,≥ 200,0.018,0.442,≥ 200,≥ 200,,≥ 200,≥ 200,≥ 200,0.185,CC(C)C[C@H](NC(=O)[C@H](C)NC(=O)[C@H](C)NC(=O)[C@@H](NC(=O)[C@H](CO)NC(=O)[C@H](CC(C)C)NC(=O)[C@H](CCC(=O)O)NC(=O)[C@H](CO)NC(=O)[C@H](C)NC(=O)CC[C@H](NC(=O)CCCCCCCCCCCCCCCCCCC(=O)O)C(=O)O)[C@@H](C)O)C(=O)NCC(=O)N[C@@H](CCCNC(=N)N)C(=O)N[C@@H](CC(C)C)C(=O)N[C@@H](CO)C(=O)N[C@@H](C)C(=O)N[C@@H](CCC(=O)O)C(=O)N[C@@H](CC(C)C)C(=O)N[C@@H](Cc1cnc[nH]1)C(=O)N[C@@H](CCC(=O)O)C(=O)N[C@@H](CC(C)C)C(=O)N[C@@H](C)C(=O)N[C@H](C(=O)N[C@@H](CC(C)C)C(=O)N1CCC[C@H]1C(=O)N[C@@H](Cc1cnc[nH]1)C(=O)N[C@H](C(=O)N[C@@H](CCC(=O)O)C(=O)N[C@H](C(=O)NCC(=O)N[C@@H](CO)C(=O)NCC(=O)N[C@@H](CO)C(=O)N1CCC[C@H]1C(N)=O)[C@@H](C)O)[C@@H](C)O)[C@@H](C)O ({C20 diacid-γGlu}-ASELSTAALGRLSAELHELATLPHTETGSGSP-NH2),55,62
